# Results reported in PubChem BioAssay (NCI).
#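 Tested at 5 concentrations; 48 h exposure; 96-well plates; endpoints linearly interpolated, else capped at highest concentration. GI50: concentration for 50% inhibition of growth. TGI is the concentration that stops growth completely.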
# How the values were obtained:
# Experiment in all cases: NCI tumour cell line growth inhibition, 48 h
# [1] = test system: KM12 colon
# [2] = test system: EKVX NSCLC
# [3] = test system: IGROV1 ovarian
# [4] = test system: NCI/ADR-RES ovarian
# [5] = test system: SF-268 CNS
# [6] = test system: SK-MEL-2 melanoma
# [7] = test system: TK-10 renal
# [8] = test system: HS 578T breast
# [9] = test system: OVCAR-4 ovarian
# [10] = test system: SF-539 CNS
# [11] = test system: MDA-MB-435
# [12] = test system: NCI-H522 lung
# [13] = test system: NCI-H460 lung
# [14] = test system: MALME-3M melanoma
# [15] = test system: UACC-257 melanoma
# [16] = test system: SNB-75 CNS
# [17] = test system: HT29 colon
# [18] = test system: SK-MEL-5 melanoma
# [19] = test system: SR leukemia
# [20] = test system: SN12C renal
# [21] = test system: SF-295 CNS
# [22] = test system: UACC-62 melanoma
# [23] = test system: BT-549 breast
# [24] = test system: MOLT-4 leukemia
# [25] = test system: NCI-H226 lung
# [26] = test system: 786-0 renal
# [27] = test system: RXF 393 renal
# [28] = test system: CAKI-1 renal
# [29] = test system: HOP-62 NSCLC
# [30] = test system: M14 melanoma
# [31] = test system: K-562 leukemia
# [32] = test system: RPMI-8226 leukemia
# [33] = test system: OVCAR-5 ovarian
# [34] = test system: SW-620 colon
# [35] = test system: OVCAR-8 ovarian
# [36] = test system: A498 renal
# [37] = test system: SNB-19 CNS
# [38] = test system: CCRF-CEM leukemia
# [39] = test system: PC-3 prostate
# [40] = test system: SK-OV-3 ovarian
# [41] = test system: COLO 205 colon
# [42] = test system: HCC-2998 colon
# [43] = test system: ACHN renal
# [44] = test system: MDA-MB-231 breast
# [45] = test system: SK-MEL-28 melanoma
# [46] = test system: UO-31 renal
# [47] = test system: OVCAR-3 ovarian
# [48] = test system: HCT-15 colon
# [49] = test system: T-47D breast
# [50] = test system: U251 CNS
# [51] = test system: DU-145 prostate
# [52] = test system: MCF7 breast
# [53] = test system: A549 NSCLC
smiles,measurement,setting,value
CC(C)Sc1nc(Nc2ccc(S(N)(=O)=O)cc2)c(C#N)c(-c2ccc(F)cc2)n1,GI50,[1],6.92 µM
same,TGI,[1],> 100 µM
same,GI50,[2],3.31 µM
same,TGI,[2],14.1 µM
same,TGI,[3],20.7 µM
same,GI50,[4],3.24 µM
same,GI50,[5],5.49 µM
same,TGI,[5],30.6 µM
same,GI50,[6],19 µM
same,TGI,[6],55.7 µM
same,GI50,[7],3.08 µM
same,GI50,[8],2.76 µM
same,TGI,[8],9.31 µM
same,GI50,[9],2.1 µM
same,TGI,[9],4.92 µM
same,TGI,[10],4.81 µM
same,GI50,[11],4.35 µM
same,TGI,[11],31.9 µM
same,GI50,[12],8 µM
same,TGI,[13],5.57 µM
same,GI50,[14],3.2 µM
same,TGI,[14],10.3 µM
same,GI50,[15],14.4 µM
same,TGI,[15],47.8 µM
same,GI50,[16],2.49 µM
same,TGI,[16],9.2 µM
same,GI50,[17],2.09 µM
same,TGI,[17],4.77 µM
same,GI50,[18],23.3 µM
same,TGI,[18],77.4 µM
same,GI50,[19],3.73 µM
same,GI50,[20],2.38 µM
same,TGI,[20],5.99 µM
same,GI50,[21],1.95 µM
same,TGI,[21],3.73 µM
same,GI50,[22],10.3 µM
same,TGI,[22],26.3 µM
same,GI50,[23],9.29 µM
same,TGI,[23],35.4 µM
same,GI50,[24],5.39 µM
same,GI50,[25],2.14 µM
same,TGI,[25],5.54 µM
same,GI50,[26],3.31 µM
same,TGI,[26],11.1 µM
same,TGI,[27],4.47 µM
same,GI50,[28],1.78 µM
same,TGI,[28],3.61 µM
same,GI50,[29],3.12 µM
same,TGI,[29],10.7 µM
same,GI50,[30],5.59 µM
same,TGI,[30],23.7 µM
same,GI50,[31],4.26 µM
same,GI50,[32],9.22 µM
same,TGI,[32],64.3 µM
same,GI50,[33],14.6 µM
same,TGI,[33],62.4 µM
same,GI50,[34],3.84 µM
same,TGI,[34],22.8 µM
same,GI50,[35],3.98 µM
same,TGI,[35],15.7 µM
same,GI50,[36],2.82 µM
same,GI50,[37],2.85 µM
same,TGI,[37],8.01 µM
same,GI50,[38],7.35 µM
same,GI50,[39],4.84 µM
same,TGI,[39],19 µM
same,GI50,[40],3.04 µM
same,TGI,[40],8.94 µM
same,GI50,[41],7.98 µM
same,TGI,[41],30.2 µM
same,GI50,[42],10.7 µM
same,TGI,[42],27.6 µM
same,GI50,[43],3.07 µM
same,TGI,[43],9.12 µM
same,GI50,[44],2.86 µM
same,TGI,[44],8.1 µM
same,GI50,[45],14.6 µM
same,TGI,[45],37.7 µM
same,GI50,[46],2.39 µM
same,TGI,[46],8.92 µM
same,GI50,[47],3.02 µM
same,TGI,[47],8.51 µM
same,TGI,[48],> 100 µM
same,GI50,[49],3.46 µM
same,TGI,[49],20.3 µM
same,GI50,[50],1.81 µM
same,TGI,[50],3.54 µM
same,GI50,[51],5.68 µM
same,TGI,[51],> 100 µM
same,TGI,[52],32.1 µM
same,TGI,[53],10.4 µM
CC(=O)OC[C@H]1OC(O)C=C[C@@H]1OC(C)=O (stereo partly specified),GI50,[1],93.9 µM
same,TGI,[1],177 µM
same,GI50,[5],109 µM
same,TGI,[5],236 µM
same,GI50,[6],91.3 µM
same,TGI,[6],177 µM
same,GI50,[7],98.1 µM
same,TGI,[7],179 µM
same,GI50,[8],107 µM
same,TGI,[8],263 µM
same,GI50,[10],77.8 µM
same,TGI,[10],155 µM
same,GI50,[11],82.4 µM
same,TGI,[11],155 µM
same,GI50,[13],155 µM
same,TGI,[13],488 µM
same,GI50,[15],87.1 µM
same,TGI,[15],183 µM
same,GI50,[16],86.3 µM
same,TGI,[16],159 µM
same,GI50,[18],89 µM
same,TGI,[18],161 µM
same,GI50,[20],88 µM
same,TGI,[20],168 µM
same,GI50,[21],102 µM
same,TGI,[21],198 µM
same,GI50,[22],92 µM
same,TGI,[22],176 µM
same,GI50,[23],89.2 µM
same,TGI,[23],162 µM
same,GI50,[25],119 µM
same,TGI,[25],267 µM
same,GI50,[26],94.1 µM
same,TGI,[26],178 µM
same,GI50,[27],96.8 µM
same,TGI,[27],195 µM
same,GI50,[28],91.1 µM
same,TGI,[28],170 µM
same,GI50,[29],110 µM
same,TGI,[29],227 µM
same,GI50,[33],95 µM
same,TGI,[33],169 µM
same,GI50,[37],91.1 µM
same,TGI,[37],170 µM
same,GI50,[38],17.7 µM
same,TGI,[38],89.8 µM
same,GI50,[39],89.5 µM
same,TGI,[39],170 µM
same,GI50,[40],145 µM
same,TGI,[40],407 µM
same,GI50,[42],91.7 µM
same,TGI,[42],171 µM
same,GI50,[43],81.5 µM
same,TGI,[43],151 µM
same,GI50,[44],87.7 µM
same,TGI,[44],183 µM
same,GI50,[45],80.4 µM
same,TGI,[45],153 µM
same,GI50,[46],89.5 µM
same,TGI,[46],168 µM
same,GI50,[49],33.3 µM
same,TGI,[49],161 µM
same,GI50,[50],95.1 µM
same,TGI,[50],187 µM
same,GI50,[51],71.6 µM
same,TGI,[51],143 µM
same,GI50,[52],23.5 µM
same,TGI,[52],123 µM
same,GI50,[53],767 µM
same,TGI,[53],2490 µM
